Test results published in PubChem BioAssay (NCI).
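Cultured in 96-well plates, cells were exposed to test compound for 48 hours across five concentrations. GI50 marks 50% less growth. TGI: concentration producing complete growth inhibition.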

How the values were obtained:
Assay in all cases: NCI anticancer screen, dose series, 48 h
[1] = tested on: 786-0 renal
[2] = tested on: EKVX NSCLC
[3] = tested on: HCT-116 colon
[4] = tested on: HS 578T breast
[5] = tested on: IGROV1 ovarian
[6] = tested on: OVCAR-8 ovarian
[7] = tested on: RPMI-8226 leukemia
[8] = tested on: SF-539 CNS
[9] = tested on: T-47D breast
[10] = tested on: TK-10 renal
[11] = tested on: MDA-N

Compound | TGI [1] [µM] | TGI [2] [µM] | TGI [3] [µM] | TGI [4] [µM] | TGI [5] [µM] | TGI [6] [µM] | TGI [7] [µM] | TGI [8] [µM] | TGI [9] [µM] | TGI [10] [µM] | TGI [11] [µM] | GI50 [6] [µM] | GI50 [8] [µM]
CC1=NN(c2nc(N)nc(CSc3nc4n(c(=S)n3)CCN4)n2)C(C)(C)C1 | > 100 | > 100 | > 100 | 41.3 | 51.5 | 47.3 | > 100 | > 100 | 54.1 | > 100 |  |  | 
CN1CNc2nc(N)n(C)c(=O)c2C1 | > 10 | > 10 |  |  | > 10 | > 10 |  | > 10 |  | > 10 | > 10 |  | 
COc1cc(-c2cc(-c3ccccc3)nc(-c3c(OC)ccc4c(C)cc(=O)oc34)c2)cc(OC)c1OC | > 100 | > 100 | > 100 | > 100 | > 100 | > 100 |  | > 100 | > 100 | > 100 | > 100 |  | 
CCSc1n/c(=C\c2ccco2)c2nncn12 | > 100 | > 100 | > 100 | > 100 | > 100 | > 100 | > 100 |  |  | > 100 | > 100 |  | 
CCN(CC)/C(Sc1ccccc1)=C(\C(Cl)=C(Cl)Cl)[N+](=O)[O-] | 37.5 | 34.7 | 32.8 | 81 | 43.7 | 35.6 |  | 33 | 42 | 31.3 | 40.2 |  | 
O=C1NC(=S)N/C1=C\c1ccc(Br)s1 | > 100 | > 100 | > 100 | > 100 | > 100 |  | 81.3 |  |  | > 100 | > 100 |  | 
CCCCCCCCCCCCCCCCOCC(CC(F)(F)P(=O)(OCC)OCC)OC(C)=O (stereo not drawn) | 23 | 44.9 | 17 |  | 21.8 |  | > 100 |  |  | 27.3 | 31.6 |  | 
CNc1ccc2c(c1)[C@@]1(C)c3ccccc3[C@@H](C2)N1C | 34.3 | 97.3 | 33.4 | > 100 | > 100 |  | 38.9 |  | > 100 | 86.2 | 74.7 |  | 
CC(=O)O[C@H]1C(=O)[C@@]2(C)[C@H]([C@H](OC(=O)c3ccccc3)[C@]3(O)C[C@H](OC(=O)[C@H](O)[C@@H](NC(=O)c4cccc(N=[N+]=[N-])c4)c4ccccc4)C(C)=C1C3(C)C)[C@]1(OC(C)=O)CO[C@@H]1C[C@@H]2O | > 25 | > 25 |  | 0.0712 | > 25 | > 25 | 0.134 | 0.0133 | > 25 | > 20.1 | 0.00735 |  | 
N#Cc1c(-c2ccc([N+](=O)[O-])cc2)c(C#N)c(=O)n(NS(=O)(=O)c2ccccc2)c1-c1ccccc1 | > 100 | > 100 | > 100 | > 100 | > 100 | > 100 | > 100 | > 100 |  | > 100 |  |  | 
COc1cc2c(cc1OCCCCN1C(=O)c3cccc4cccc(c34)C1=O)N=C[C@@H]1CCCN1C2=O | 9.73 | 44.6 | 14 |  | 6.01 | 82.8 | 27.4 | 7.1 | 37.1 | 6.91 |  |  | 
COc1cccc([C@H]2C/C(=N\NC(=O)C(=O)N[C@@H](C)c3ccccc3)c3ccccc3N2)c1 | 97.3 | > 100 | 12 | 0.088 |  | 1.05 | 0.0503 | 21.3 |  | > 100 |  | 0.0285 | 0.0208
CCOC(=O)Cn1c(=O)c2nc(SC)sc2n(CC)c1=S | 0.32 |  | > 100 | 95.8 | > 100 | > 100 | > 100 | > 100 | > 100 | > 100 | > 100 |  | 
N#CC(=C1CCN(CCCC(=O)c2ccc(F)cc2)CC1)c1ccccc1 | > 100 | > 100 | > 100 | > 100 | > 100 | > 100 | > 100 | > 100 | > 100 | > 100 |  |  | 
CCCCc1ccc(Nc2nc(SC)c3[nH]cnc3n2)cc1 | > 100 | > 100 | > 100 | > 100 | > 100 | > 100 | > 100 | > 100 | > 100 | > 100 |  |  | 
COC(=O)c1sc(=S)sc1SCc1ccc(CSc2sc(=S)sc2C(=O)OC)cc1 | > 100 | > 100 | > 100 | > 100 | > 100 | > 100 |  |  | > 100 | > 100 | > 100 |  | 

Compound | TGI [1] [µM] | TGI [2] [µM] | TGI [3] [µM] | TGI [4] [µM] | TGI [5] [µM] | TGI [6] [µM] | TGI [7] [µM] | TGI [8] [µM] | TGI [9] [µM] | TGI [10] [µM] | TGI [11] [µM] | GI50 [6] [µM] | GI50 [8] [µM]
CCCN(CCCc1ccccc1)CCc1ccc2[nH]c(=S)[nH]c2c1 | 25.4 | > 100 | > 100 | > 100 | 79.9 | > 100 | 39.9 |  | 43.2 | > 100 | 41.7 |  | 
CN1CCN(c2ncc3c(n2)sc2c(=O)n(-c4ccccc4)cnc23)CC1 | > 100 |  | > 100 | > 100 | > 100 | > 100 | > 100 |  | > 100 | > 100 | > 100 |  | 
O=S(Nc1ccccc1)c1cccc(Cl)c1 (stereo not drawn) | > 100 | > 100 | > 100 | > 100 | > 100 | > 100 | > 100 | 77.6 |  | > 100 | > 100 |  | 
COc1cc(CO)c(CC(=O)NCCCc2ccccc2)cc1OC | > 100 | > 100 | > 100 | > 100 | > 100 | > 100 |  |  | > 100 | > 100 | > 100 |  | 
CC(=O)OCC1OC(c2nc3ccccc3s2)=CC(OC(C)=O)C1OC(C)=O (stereo not drawn) | > 100 | > 100 | > 100 | > 100 | > 100 | > 100 | > 100 | > 100 |  | > 100 | > 100 |  | 
Cc1cn(C2CC(O)C(COC(=O)NCCC(F)(F)C(F)(F)C(F)(F)C(F)(F)F)O2)c(=O)[nH]c1=O (stereo not drawn) | > 100 | > 100 | > 100 | > 100 | > 100 | > 100 |  | > 100 | > 100 | > 100 | > 100 |  | 
CC[C@@H]1CC[C@@H]2[C@H](CC[C@]3(C)[C@@H](OS(=O)(=O)c4ccc(C)cc4)CC[C@@H]23)[C@H]1COS(=O)(=O)c1ccc(C)cc1 | > 100 | > 100 | > 100 | > 100 | > 100 | > 100 | > 100 | > 100 |  | > 100 | > 100 |  | 
C/C=C\C(CC(=O)NCCC1CN(S(=O)(=O)c2ccc(C)cc2)c2ccccc21)CC(=O)OC (stereo not drawn) | > 100 | > 100 | > 100 | > 100 | > 100 | > 100 | > 100 |  | > 100 | > 100 | > 100 |  | 
Cc1ccc(NC2=CC(=O)C(NO)c3ccccc32)cc1 (stereo not drawn) | 17.4 | 8.57 | 8.77 |  | 4.6 | 4.41 |  | 8.8 | 7.63 | 62.7 | 6.75 |  | 
CCOC(=O)c1c(N)sc2c1C(C)(C(=O)OCC)CC2 (stereo not drawn) | > 100 | > 100 | > 100 | > 100 | > 100 | > 100 | > 100 |  |  | > 100 | > 100 |  | 
CC(C)C1=CC23CCC4C(C)(C(=O)O)CCCC4(C)C2CC1C1C(=O)N(c2ccccc2N2C(=O)C4C5CC6C7(C)CCCC(C)(C(=O)O)C7CCC6(C=C5C(C)C)C4C2=O)C(=O)C13 (stereo not drawn) | 62.8 | 17.9 | 18.2 | 34.1 |  |  | > 100 | 12.5 | 42.5 | 27.3 | 19.4 |  | 
NC(=O)c1cc2ccc(O)cc2oc1=Nc1ccccc1 | > 100 | > 100 | > 100 | > 100 | > 100 | > 100 | 63.8 |  | 66.1 | > 100 | > 100 |  | 
CN(C)CCCNc1ccc([N+](=O)[O-])c2nc3ccccc3c(N)c12 | 1.8 | 2.35 | 1.33 | > 10 | 6.47 |  | 2.14 | 1.82 |  | > 10 | 2.18 |  | 
C=CCc1cccc2cc(C(=O)Nc3ccccc3)c(=N)oc12 | > 100 |  | > 100 | > 100 | > 100 | > 100 | > 100 | > 100 | 85.7 |  | > 100 |  | 
COc1ccc(CNC(=O)NCn2cc(-c3ccccc3)nn2)cc1 | > 100 | > 100 | > 100 |  | > 100 | > 100 | > 100 | > 100 |  | > 100 |  |  | 
Cc1cc2c(cc1Cl)S(=O)(=O)OC(c1ccc([N+](=O)[O-])cc1)=N2 | > 100 | > 100 | > 100 | > 100 | > 100 | > 100 | > 100 | > 100 | > 100 | > 100 |  |  | 
